Data set [1] relates to murine colorectal cancer MC38/EGFP. Kind of data set: burden of metastases in regional lymph nodes, MC38/EGFP fluorescence (1c). It counts as in vivo, mice. From the text:
Cancer cells of murine colorectal cancer MC38/EGFP (cells expressing a protein of green fluorescence) were implanted subcutaneously in an amount of 1×10^6 cells/mouse. […] Compounds were given subcutaneously, 3 times a week. […] Then on day 59 of experiment, lymph nodes from mice of remaining were taken for analysis. Using NightOWL II LB 983 apparatus, photographs of isolated lymph nodes were taken in order to visualize cancer cells in sites of metastases.
Intensity of the measured fluorescence is related to a burden of metastases (the number of cells with fluorescence).

A further data set has as its system MC38/0. Kind of data set: antiproliferative activity of 5-fluorouracil combined with vitamin D analogues in vitro, 120 h. Format: cell-based, mouse. Further details: key: +: sub-additive effect; ++: additive effect; +++: synergistic effect; −: antagonism. Conditions: 120-hours exposure. As to the method:
After 24 h culture, the cells of large intestine carcinoma were treated simultaneously with calcitriol or vitamin D analogues and 5-fluorouracil for 120 hours. […] Statistical analysis of the obtained results of inhibition of proliferation was carried out by analysis of percent of inhibition of proliferation in individual combinations of compounds.
(§1) Hypothetical value was calculated according to a formula: […]
(§2) wherein: % H—hypothetical inhibition of proliferation by combination of compounds [Vo]; % cyt—inhibition of proliferation by 5-Fu alone [%]; % vit—inhibition of proliferation by calcitriol or cholecalciferol analogue alone [%];
(§3) Additive effect occurs when the experimental and hypothetical value are similar, sub-additive effect occurs when experimental value is lower than hypothetical value but above value for a cytostatic alone, and antagonistic action—when a value determined for a cytostatic used alone is above experimental value for combination of both compounds. [Peters G. J. i wsp.: Pharmacol Ther 2000, 87, 227-253]

Another data set deals with LoVo. The description is as above. It counts as cell-based, human. Further details: key: +: sub-additive effect; ++: additive effect; +++: synergistic effect; −: antagonism. The settings on record: analogue 100 nM + 5-fluorouracil 1 μg/ml, 120-hours exposure. How it is done: (§4) After 24 h culture, the cells of large intestine carcinoma were treated simultaneously with calcitriol or vitamin D analogues and 5-fluorouracil for 120 hours. The final concentration of vitamin D analogues was 100 nM, and of 5-fluorouracil—-1 μg/ml or 0.1 μg/ml. Statistical analysis of the obtained results of inhibition of proliferation was carried out by analysis of percent of inhibition of proliferation in individual combinations of compounds.
as §1, §2, §3

Another data set has as its system HT-29. Described as above. It counts as cell-based, human. Details: key: +: sub-additive effect; ++: additive effect; +++: synergistic effect; −: antagonism. Conditions: analogue 100 nM + 5-fluorouracil 0.1 μg/ml, 120-hours exposure. As to the method:
as §4, §1, §2, §3

Data set [2] has as its system murine colorectal cancer C38. Kind of data set: tumour growth in mice with colorectal cancer C38 treated with 5-fluorouracil (1a). Format: in vivo, Mice of C57BL/6 strain. Conditions: for TGI / Tumours MEAN ± SD: C38, 28 day of experiment; for Tumours MEAN ± SD: 5-FU 150 mg/kg i.p., PRI-2191 2 ug/kg s.c., PRI-2205 10 μg/kg s.c.; for volume of tumours C38 in comparison with control: single agent.

The next data set relates to CaCo-2. Kind of data set: antiproliferative activity of 5-fluorouracil combined with vitamin D analogues in vitro, 120 h. It counts as cell-based, human. Further details: key to Type of reaction between vitamin D analogues and 5-fluorouracil: +: sub-additive effect; ++: additive effect; +++: synergistic effect; −: antagonism. The settings on record: for Type of reaction between vitamin D analogues and 5-fluorouracil: CaCo-2, analogue 100 nM + 5-fluorouracil 1 μg/ml, 120-hours exposure. As to the method:
as §4, §1, §2, §3

Data set [3] concerns murine colorectal cancer C38. Kind of data set: survival time and tumour growth in mice with colorectal cancer C38 treated with 5-FU (1b). Format: in vivo. Conditions: for ILS %: 5-FU 75 mg/kg i.p. day 1, PRI-2191 2, PRI-2205 10 μg/kg/day 3 times per week; for TGI (d20) %: day 20; for C38 tumour mass in comparison with control: single agent. How it is done:
Mice with colorectal cancer C38 were treated with 5-FU given in a single administration, intraperitoneally on day 1 at a dose of 75 mg/kg.

Data set [4] concerns murine colorectal carcinoma C38. Kind of data set: tumour growth in mice with murine colorectal carcinoma C38 treated with capecitabine. Format: in vivo, Mice of C57BL/6 strain. Conditions: for Tumours MEAN ± SD / TGI: C38; for tumour C38 mass in comparison with control: single agent.
The next data set relates to colorectal cancer HT-29. Kind of data set: tumour growth in mice with colorectal cancer HT-29 treated with 5-fluorouracil. Format: in vivo. Conditions: for TGI / Tumours MEAN ± SD: HT-29, 49 day of experiment; for HT-29 tumour mass in comparison with control: single agent.
The conditions of data set [5]: rats; cited from earlier work.
Setting [6] is: MC38/0, analogue 100 nM + 5-fluorouracil 0.1 μg/ml.
[7] abbreviates: analogue 100 nM + 5-fluorouracil 0.01 μg/ml, cell line of this column unclear (MC38/0 or CaCo-2).
The mark [8] stands for this setting: 18 day of experiment, KCY 250 mg/kg/day oral, PRI-2191 1, PRI-2205 10 μg/kg/day s.c.
The mark [9] stands for this setting: analogue combined with capecitabine.

The TGI is the reduction of tumour growth relative to the control group. Regarding `C=C1/C(=C/C=C2\CCC[C@]3(C)[C@@H]([C@H](C)/C=C/[C@@H](O)C4CC4)CC[C@@H]23)C[C@@H](O)C[C@@H]1O` [PRI-2205, (1S,3R,5E,7E,22E,24S)-24-cyclopropyl-9,10-secochol-5,7,10(19),22-tetraeno-1,3,24-triol], the “metastases in regional lymph nodes (intensity of fluorescence), combined treatment with 5-FU” value in data set [1] (5-FU 75 mg/kg i.p. with PRI-2191 1 μg/kg or PRI-2205 10 μg/kg s.c., day 59) is reported as “did not influence the metastatic process”. The “metastases in regional lymph nodes (fluorescence) versus control mice” value in data set [1] (analogue only, day 50) is on record as “did not differ significantly”. Also, in the data set with MC38/0 (setting [6]), the “Type of reaction between vitamin D analogues and 5-fluorouracil” value is given as “+++”. The “Type of reaction between vitamin D analogues and 5-fluorouracil” value in the data set on MC38/0 (setting [7]) is on record as “+++”. The “Type of reaction between vitamin D analogues and 5-fluorouracil” value in the data set on LoVo was “+++”. For the same compound, the “Type of reaction between vitamin D analogues and 5-fluorouracil” value in the data set on HT-29 was “+++”. For the same compound, in [2], the TGI was found to be 29%, the “Tumours MEAN ± SD” value came out at 1.06 ± 0.84 g and the “volume of tumours C38 in comparison with control” value is given as “inhibits C38 tumours growth from 18 to 28 day of measurement”. Besides, the “volume of tumours C38, combination with 5-FU in comparison with 5-FU” value in data set [2] (analogue combined with 5-FU) is reported as “decreases in statistically significant manner volume of tumours also in comparison with 5-FU”. Further, the “Type of reaction between vitamin D analogues and 5-fluorouracil” value in the data set with CaCo-2 is reported as “+++”. In [3] (C38), the ILS % is 2% and the “TGI (d20) %” value came to 0%. The “influence on survival time of mice treated with 5-FU” value in data set [3] (C38, analogue added to 5-FU, p<0.05) was “prolongs survival of mice treated with 5-FU”. Also, in data set [3] (C38, combination with 5-FU, survival time), the “ILS Effect” value is reported as “synergistic”. In addition, the “C38 tumour mass, combination with 5-FU in comparison with 5-FU” value in data set [3] (analogue combined with 5-FU) was “in a statistically significant manner decreases tumour mass also in comparison with 5-FU”. For the same compound, in data set [3], the “C38 tumour mass in comparison with control” value is recorded as “does not influence tumour mass”. Further, the “Tumours MEAN ± SD” value in data set [4] (setting [8]) was 0.81 ± 0.60 g. For the same compound, in data set [4] (setting [9]), the “tumour mass, combination with capecitabine in comparison with capecitabine alone” value is “influences significantly tumour mass in comparison with capecitabine alone” and the “type of interaction in inhibition of tumour growth with capecitabine” value is “synergism”. Further, the “tumour C38 mass in comparison with control” value in [4] is reported as “does not influence tumour mass”. Also, in the data set on colorectal cancer HT-29, the TGI worked out at 31%, the “Tumours MEAN ± SD” value was 1.88 ± 0.78 g and the “HT-29 tumour mass in comparison with control” value was “did not influence tumour mass”. For the same compound, in the data set with colorectal cancer HT-29 (analogue combined with 5-FU), the “HT-29 tumour mass, combination with 5-FU in comparison with 5-FU alone” value is “influences significantly also tumour mass in comparison with 5-FU alone” and the “type of interaction in inhibition of HT-29 tumour growth” value is “synergism”.
Turning to `CCCCCOC(=O)Nc1nc(=O)n([C@@H]2O[C@H](C)[C@@H](O)[C@H]2O)cc1F` [KCY, capecitabine], the TGI is recorded as 47% in data set [4] (18 day of experiment) and 35% in data set [4] (29 day of experiment). For the same compound, the “Tumours MEAN ± SD” value in data set [4] (setting [8]) came out at 0.41 ± 0.33 g; in data set [4] (29 day of experiment) it was 1.65 ± 1.39 g. In [4], the “tumour C38 mass in comparison with control” value is “decreases tumour C38 mass in comparison with control”.
In the case of `O=c1[nH]cc(F)c(=O)[nH]1` [5-FU, 5-fluorouracil], in data set [2], the TGI turned out to be 84%, the “Tumours MEAN ± SD” value was found to be 0.19 ± 0.19 g and the “volume of tumours C38 in comparison with control” value was “decreases in statistically significant manner volume of tumours C38 in comparison with control”. In data set [3] (C38), the ILS % was found to be 21% and the “TGI (d20) %” value came to 64%. In addition, the “C38 tumour mass in comparison with control” value in data set [3] is on record as “decreases in a statistically significant manner C38 tumour mass in comparison with control”. Also, in the data set with colorectal cancer HT-29, the tumour growth inhibition (TGI) is recorded as 47%, the “Tumours MEAN ± SD” value was 1.23 ± 0.30 g and the “HT-29 tumour mass in comparison with control” value is “decreases in a statistically significant manner HT-29 tumour in comparison with control”.
On to `C=C1/C(=C\C=C2/CCC[C@]3(C)[C@@H]([C@H](C)CCCC(C)(C)O)CC[C@@H]23)C[C@@H](O)C[C@@H]1O` [CALCITRIOL, 1,25-dihydroxycholekalciferol], for which the “Type of reaction between vitamin D analogues and 5-fluorouracil” value in the data set on MC38/0 (setting [6]) was “+++”; in the data set on MC38/0 (setting [7]), “+++”; in the data set on LoVo, “+++”; in the data set with HT-29, “+++”; in the data set with CaCo-2 it was “−”. Also, the “interaction with 5-fluorouracil” value in the data set on CaCo-2 (Caco-2 cell line, 120-hour exposure) was “antagonism”.
Regarding `C=C1/C(=C\C=C2/CCC[C@]3(C)[C@@H]([C@H](C)/C=C/[C@@H](O)C4CC4)CC[C@@H]23)C[C@@H](O)C[C@@H]1O` [PRI-2201, (1S,3R,5Z,7E,22E,24S)-24-cyclopropyl-9,10-secochola-5,7,10(19),22-tetraeno-1,3,24-triol], the “Type of reaction between vitamin D analogues and 5-fluorouracil” value in the data set on MC38/0 (setting [6]), with MC38/0 (setting [7]), in the data set with LoVo, with HT-29 and in the data set on CaCo-2 was “+++” in each case. Also, the “lesser influence on calcium metabolism than calcitriol” value in data set [5] was 100-200 fold.

The values above are taken from patent US20120101057A1, “COMBINED THERAPY OF COLORECTAL CARCINOMA” (INSTYTUT FARMACEUTYCZNY, priority 2009, published 2012).
